# Data published in patent US10597388B2, “Pyridazinone herbicides” (FMC CORPORATION, priority 2014, dated 2020).
# Legend:
# Experiment in all cases: Test C greenhouse herbicide test, pre- and postemergence
# Format in all cases: in vivo
# [1] = tested on: blackgrass (Alopecurus myosuroides)
# How it was run: (§1)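 Each species was treated both before emergence, in a loam–sand soil mix, and after emergence, as 1- to 4-leaf seedlings in peat-based potting medium. Plants stayed in the greenhouse 13 to 15 d, then were scored from 0 (no effect) to 100 (complete control) relative to controls.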
# [2] = tested on: corn (Zea mays)
# How it was run: as §1
# [3] = tested on: crabgrass, large (large crabgrass, Digitaria sanguinalis)
# How it was run: as §1
# [4] = tested on: foxtail, giant (giant foxtail, Setaria faberii)
# How it was run: as §1
# [5] = tested on: galium (catchweed bedstraw, Galium aparine)
# How it was run: as §1
# [6] = tested on: johnsongrass (Sorghum halepense)
# How it was run: as §1
# [7] = tested on: lambsquarters (Chenopodium album)
# How it was run: as §1
# [8] = tested on: morningglory (Ipomoea coccinea)
# How it was run: as §1
# [9] = tested on: nutsedge, yellow (yellow nutsedge, Cyperus esculentus)
# How it was run: as §1
# [10] = tested on: oilseed rape (Brassica napus)
# How it was run: as §1
# [11] = tested on: pigweed (Amaranthus retroflexus)
# How it was run: as §1
# [12] = tested on: ryegrass, Italian (Italian ryegrass, Lolium multiflorum)
# How it was run: as §1
# [13] = tested on: soybean (Glycine max)
# How it was run: as §1
# [14] = tested on: velvetleaf (Abutilon theophrasti)
# How it was run: as §1
# [15] = tested on: waterhemp (common waterhemp, Amaranthus rudis)
# How it was run: as §1
# [16] = tested on: wheat (winter wheat, Triticum aestivum)
# How it was run: as §1
# [17] = Postemergence, 31 g ai/ha, scale 0 to 100 (0 no effect, 100 complete control)
# [18] = Postemergence, 62 g ai/ha, 0 to 100 scale (0 no effect, 100 complete control)
# [19] = Postemergence, 250 g ai/ha, scale 0 to 100, 0 no effect, 100 complete control, 13 to 15 d
# [20] = Preemergence, 31 g ai/ha, scale 0 to 100, 0 is no effect, 100 is complete control
# [21] = Preemergence, 62 g ai/ha, scale 0 to 100, 0 is no effect, 100 is complete control
# [22] = Preemergence, 125 g ai/ha, scale 0 to 100, 0 is no effect, 100 is complete control
# [23] = Preemergence, 250 g ai/ha, scale 0 to 100 (0 no effect, 100 complete control)
# [24] = postemergence, 125 g ai/ha, scale 0 to 100, 0 no effect, 100 complete control
smiles,measurement,setting,value
COC(=O)Oc1c(Br)nn(C)c(=O)c1-c1c(C)ccc2ccccc12 [Compound 137],"Plant response rating, Blackgrass",[1]; [17],0
same,Blackgrass plant response rating,[1]; [18],0
same,"Plant response rating, Blackgrass",[1]; [19],0
same,"Plant response rating, Blackgrass",[1]; [20],30
same,"Plant response rating, Blackgrass",[1]; [21],40
same,"Plant response rating, Blackgrass",[1]; [22],30
same,Blackgrass plant response rating,[1]; [23],90
same,Blackgrass plant response rating,[1]; [24],0
same,"Plant response rating, Corn",[2]; [17],5
same,Corn plant response rating,[2]; [18],15
same,"Plant response rating, Corn",[2]; [19],20
same,"Plant response rating, Corn",[2]; [20],0
same,"Plant response rating, Corn",[2]; [21],10
same,"Plant response rating, Corn",[2]; [22],10
same,Corn plant response rating,[2]; [23],55
same,Corn plant response rating,[2]; [24],10
same,"Plant response rating, Crabgrass, Large",[3]; [17],30
same,"Crabgrass, Large plant response rating",[3]; [18],30
same,"Plant response rating, Crabgrass, Large",[3]; [19],35
same,"Plant response rating, Crabgrass, Large",[3]; [20],20
same,"Plant response rating, Crabgrass, Large",[3]; [21],20
same,"Plant response rating, Crabgrass, Large",[3]; [22],70
same,"Crabgrass, Large plant response rating",[3]; [23],80
same,"Crabgrass, Large plant response rating",[3]; [24],35
same,"Plant response rating, Foxtail, Giant",[4]; [17],45
same,"Foxtail, Giant plant response rating",[4]; [18],60
same,"Plant response rating, Foxtail, Giant",[4]; [19],95
same,"Plant response rating, Foxtail, Giant",[4]; [20],65
same,"Plant response rating, Foxtail, Giant",[4]; [21],85
same,"Plant response rating, Foxtail, Giant",[4]; [22],95
same,"Foxtail, Giant plant response rating",[4]; [23],100
same,"Foxtail, Giant plant response rating",[4]; [24],80
same,"Plant response rating, Galium",[5]; [17],85
same,Galium plant response rating,[5]; [18],90
same,"Plant response rating, Galium",[5]; [19],95
same,"Plant response rating, Galium",[5]; [20],98
same,"Plant response rating, Galium",[5]; [21],98
same,"Plant response rating, Galium",[5]; [22],98
same,Galium plant response rating,[5]; [23],100
same,Galium plant response rating,[5]; [24],90
same,"Plant response rating, Johnsongrass",[6]; [17],10
same,Johnsongrass plant response rating,[6]; [18],10
same,"Plant response rating, Johnsongrass",[6]; [19],15
same,"Plant response rating, Johnsongrass",[6]; [20],0
same,"Plant response rating, Johnsongrass",[6]; [21],5
same,"Plant response rating, Johnsongrass",[6]; [22],20
same,Johnsongrass plant response rating,[6]; [23],20
same,Johnsongrass plant response rating,[6]; [24],15
same,"Plant response rating, Lambsquarters",[7]; [17],90
same,Lambsquarters plant response rating,[7]; [18],90
same,"Plant response rating, Lambsquarters",[7]; [19],100
same,"Plant response rating, Lambsquarters",[7]; [20],90
same,"Plant response rating, Lambsquarters",[7]; [21],100
same,"Plant response rating, Lambsquarters",[7]; [22],100
same,Lambsquarters plant response rating,[7]; [23],95
same,Lambsquarters plant response rating,[7]; [24],98
same,"Plant response rating, Morningglory",[8]; [17],100
same,Morningglory plant response rating,[8]; [18],98
same,"Plant response rating, Morningglory",[8]; [19],100
same,"Plant response rating, Morningglory",[8]; [20],70
same,"Plant response rating, Morningglory",[8]; [21],85
same,"Plant response rating, Morningglory",[8]; [22],90
same,Morningglory plant response rating,[8]; [23],98
same,Morningglory plant response rating,[8]; [24],100
same,"Plant response rating, Nutsedge, Yellow",[9]; [17],65
same,"Nutsedge, Yellow plant response rating",[9]; [18],85
same,"Plant response rating, Nutsedge, Yellow",[9]; [19],90
same,"Plant response rating, Nutsedge, Yellow",[9]; [20],55
same,"Plant response rating, Nutsedge, Yellow",[9]; [21],85
same,"Plant response rating, Nutsedge, Yellow",[9]; [22],90
same,"Nutsedge, Yellow plant response rating",[9]; [23],95
same,"Nutsedge, Yellow plant response rating",[9]; [24],85
same,"Plant response rating, Oilseed Rape",[10]; [17],95
same,Oilseed Rape plant response rating,[10]; [18],98
same,"Plant response rating, Oilseed Rape",[10]; [19],98
same,"Plant response rating, Oilseed Rape",[10]; [20],0
same,"Plant response rating, Oilseed Rape",[10]; [21],90
same,"Plant response rating, Oilseed Rape",[10]; [22],50
same,Oilseed Rape plant response rating,[10]; [23],90
same,Oilseed Rape plant response rating,[10]; [24],98
same,"Plant response rating, Pigweed",[11]; [17],90
same,Pigweed plant response rating,[11]; [18],98
same,"Plant response rating, Pigweed",[11]; [19],100
same,"Plant response rating, Pigweed",[11]; [20],100
same,"Plant response rating, Pigweed",[11]; [21],100
same,"Plant response rating, Pigweed",[11]; [22],100
same,Pigweed plant response rating,[11]; [23],100
same,Pigweed plant response rating,[11]; [24],98
same,"Plant response rating, Ryegrass, Italian",[12]; [17],10
same,"Ryegrass, Italian plant response rating",[12]; [18],30
same,"Plant response rating, Ryegrass, Italian",[12]; [19],60
same,"Plant response rating, Ryegrass, Italian",[12]; [20],85
same,"Plant response rating, Ryegrass, Italian",[12]; [21],95
same,"Plant response rating, Ryegrass, Italian",[12]; [22],100
same,"Ryegrass, Italian plant response rating",[12]; [23],100
same,"Ryegrass, Italian plant response rating",[12]; [24],30
same,"Plant response rating, Soybean",[13]; [17],10
same,Soybean plant response rating,[13]; [18],10
same,"Plant response rating, Soybean",[13]; [19],20
same,"Plant response rating, Soybean",[13]; [20],30
same,"Plant response rating, Soybean",[13]; [21],20
same,"Plant response rating, Soybean",[13]; [22],40
same,Soybean plant response rating,[13]; [23],30
same,Soybean plant response rating,[13]; [24],15
same,"Plant response rating, Velvetleaf",[14]; [17],85
same,Velvetleaf plant response rating,[14]; [18],90
same,"Plant response rating, Velvetleaf",[14]; [19],95
same,"Plant response rating, Velvetleaf",[14]; [20],80
same,"Plant response rating, Velvetleaf",[14]; [21],100
same,"Plant response rating, Velvetleaf",[14]; [22],100
same,Velvetleaf plant response rating,[14]; [23],100
same,Velvetleaf plant response rating,[14]; [24],90
same,"Plant response rating, Waterhemp",[15]; [17],85
same,Waterhemp plant response rating,[15]; [18],65
same,"Plant response rating, Waterhemp",[15]; [19],90
same,"Plant response rating, Waterhemp",[15]; [20],85
same,"Plant response rating, Waterhemp",[15]; [21],98
same,"Plant response rating, Waterhemp",[15]; [22],95
same,Waterhemp plant response rating,[15]; [23],98
same,Waterhemp plant response rating,[15]; [24],85
same,"Plant response rating, Wheat",[16]; [17],75
same,Wheat plant response rating,[16]; [18],90
same,"Plant response rating, Wheat",[16]; [19],95
same,"Plant response rating, Wheat",[16]; [20],15
same,"Plant response rating, Wheat",[16]; [21],80
same,"Plant response rating, Wheat",[16]; [22],90
same,Wheat plant response rating,[16]; [23],90
same,Wheat plant response rating,[16]; [24],90
